“And” between values parts separate entries of the source, which are not always exact repeats. Identical values can stand only once.
Experiments:
Assay in all cases: biochemical
Assay type in all cases: biochemical
various kinases [1] = target: T1, various kinases (Homo sapiens, UniProt P42681); conditions: kinase TXK; ZLYTE
T1 sequence (P42681 1-527): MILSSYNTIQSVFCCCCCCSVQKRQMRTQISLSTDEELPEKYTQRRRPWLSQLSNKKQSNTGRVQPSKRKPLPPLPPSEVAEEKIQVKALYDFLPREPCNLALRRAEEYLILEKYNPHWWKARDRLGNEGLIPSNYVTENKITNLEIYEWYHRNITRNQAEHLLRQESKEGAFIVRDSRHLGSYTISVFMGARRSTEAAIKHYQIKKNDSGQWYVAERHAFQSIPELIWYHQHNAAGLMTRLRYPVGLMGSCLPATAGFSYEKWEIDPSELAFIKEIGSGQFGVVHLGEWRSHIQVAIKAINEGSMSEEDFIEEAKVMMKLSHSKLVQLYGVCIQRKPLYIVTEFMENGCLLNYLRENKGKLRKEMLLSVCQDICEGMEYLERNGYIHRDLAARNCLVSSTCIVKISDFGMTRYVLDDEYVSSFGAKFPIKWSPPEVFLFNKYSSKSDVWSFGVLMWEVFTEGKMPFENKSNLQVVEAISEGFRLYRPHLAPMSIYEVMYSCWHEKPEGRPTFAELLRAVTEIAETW

various kinases [2] = target: various kinases (Homo sapiens, UniProt Q9P289); conditions: MST4
various kinases [3] = target: various kinases (Homo sapiens, UniProt Q52WX2); conditions: kinase SBK1; ZLYTE
Chain of various kinases (Homo sapiens, UniProt Q52WX2) (Q52WX2 whole entry): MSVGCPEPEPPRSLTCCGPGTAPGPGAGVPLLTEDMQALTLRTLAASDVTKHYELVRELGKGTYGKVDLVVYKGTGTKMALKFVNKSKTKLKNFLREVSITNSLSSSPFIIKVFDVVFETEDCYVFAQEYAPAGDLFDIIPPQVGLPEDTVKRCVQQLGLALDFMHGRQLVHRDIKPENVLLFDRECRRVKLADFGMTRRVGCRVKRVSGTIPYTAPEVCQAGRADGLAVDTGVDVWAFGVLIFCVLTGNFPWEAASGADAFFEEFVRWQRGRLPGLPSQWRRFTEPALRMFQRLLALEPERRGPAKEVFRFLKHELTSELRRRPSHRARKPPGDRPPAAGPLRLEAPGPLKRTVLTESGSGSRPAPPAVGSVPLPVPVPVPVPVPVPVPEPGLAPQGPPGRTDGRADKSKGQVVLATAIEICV

various kinases [4] = target: various kinases (Homo sapiens, UniProt P17252); conditions: kinase PRKCA (PKC alpha); ZLYTE
various kinases [5] = target: various kinases (Homo sapiens, UniProt Q14289); conditions: kinase PTK2B (FAK2); ZLYTE
Chain of various kinases (Homo sapiens, UniProt Q14289) (Q14289 whole entry): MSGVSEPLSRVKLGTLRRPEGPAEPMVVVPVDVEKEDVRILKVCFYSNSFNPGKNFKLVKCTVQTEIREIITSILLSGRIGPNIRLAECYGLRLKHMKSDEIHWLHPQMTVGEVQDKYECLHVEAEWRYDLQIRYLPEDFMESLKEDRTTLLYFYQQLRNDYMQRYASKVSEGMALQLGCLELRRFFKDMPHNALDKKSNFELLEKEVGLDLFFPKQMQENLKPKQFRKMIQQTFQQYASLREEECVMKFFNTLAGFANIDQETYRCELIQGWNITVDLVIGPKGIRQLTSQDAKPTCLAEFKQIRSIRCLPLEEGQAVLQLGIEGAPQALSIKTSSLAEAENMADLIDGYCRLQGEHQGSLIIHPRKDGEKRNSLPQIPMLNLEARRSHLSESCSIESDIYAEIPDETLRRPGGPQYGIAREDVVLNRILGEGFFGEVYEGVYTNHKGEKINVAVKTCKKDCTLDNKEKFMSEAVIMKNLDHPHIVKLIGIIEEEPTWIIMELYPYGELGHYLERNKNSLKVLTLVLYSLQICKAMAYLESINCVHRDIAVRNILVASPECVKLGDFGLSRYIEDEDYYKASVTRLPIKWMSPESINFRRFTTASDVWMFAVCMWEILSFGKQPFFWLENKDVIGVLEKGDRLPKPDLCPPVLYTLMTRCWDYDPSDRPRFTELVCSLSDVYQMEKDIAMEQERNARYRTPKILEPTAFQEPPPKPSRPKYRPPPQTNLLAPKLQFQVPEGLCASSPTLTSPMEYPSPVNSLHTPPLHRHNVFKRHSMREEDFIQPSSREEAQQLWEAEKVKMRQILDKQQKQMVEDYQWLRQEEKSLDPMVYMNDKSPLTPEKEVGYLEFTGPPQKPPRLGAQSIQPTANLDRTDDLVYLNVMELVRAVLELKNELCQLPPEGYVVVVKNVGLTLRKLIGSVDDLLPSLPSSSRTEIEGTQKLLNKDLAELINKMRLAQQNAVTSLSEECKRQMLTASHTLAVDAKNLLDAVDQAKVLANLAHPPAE

various kinases [6] = target: various kinases (Homo sapiens, UniProt P35968); conditions: KDR (VEGFR2)
Chain of various kinases (Homo sapiens, UniProt P35968) (P35968 20-1356): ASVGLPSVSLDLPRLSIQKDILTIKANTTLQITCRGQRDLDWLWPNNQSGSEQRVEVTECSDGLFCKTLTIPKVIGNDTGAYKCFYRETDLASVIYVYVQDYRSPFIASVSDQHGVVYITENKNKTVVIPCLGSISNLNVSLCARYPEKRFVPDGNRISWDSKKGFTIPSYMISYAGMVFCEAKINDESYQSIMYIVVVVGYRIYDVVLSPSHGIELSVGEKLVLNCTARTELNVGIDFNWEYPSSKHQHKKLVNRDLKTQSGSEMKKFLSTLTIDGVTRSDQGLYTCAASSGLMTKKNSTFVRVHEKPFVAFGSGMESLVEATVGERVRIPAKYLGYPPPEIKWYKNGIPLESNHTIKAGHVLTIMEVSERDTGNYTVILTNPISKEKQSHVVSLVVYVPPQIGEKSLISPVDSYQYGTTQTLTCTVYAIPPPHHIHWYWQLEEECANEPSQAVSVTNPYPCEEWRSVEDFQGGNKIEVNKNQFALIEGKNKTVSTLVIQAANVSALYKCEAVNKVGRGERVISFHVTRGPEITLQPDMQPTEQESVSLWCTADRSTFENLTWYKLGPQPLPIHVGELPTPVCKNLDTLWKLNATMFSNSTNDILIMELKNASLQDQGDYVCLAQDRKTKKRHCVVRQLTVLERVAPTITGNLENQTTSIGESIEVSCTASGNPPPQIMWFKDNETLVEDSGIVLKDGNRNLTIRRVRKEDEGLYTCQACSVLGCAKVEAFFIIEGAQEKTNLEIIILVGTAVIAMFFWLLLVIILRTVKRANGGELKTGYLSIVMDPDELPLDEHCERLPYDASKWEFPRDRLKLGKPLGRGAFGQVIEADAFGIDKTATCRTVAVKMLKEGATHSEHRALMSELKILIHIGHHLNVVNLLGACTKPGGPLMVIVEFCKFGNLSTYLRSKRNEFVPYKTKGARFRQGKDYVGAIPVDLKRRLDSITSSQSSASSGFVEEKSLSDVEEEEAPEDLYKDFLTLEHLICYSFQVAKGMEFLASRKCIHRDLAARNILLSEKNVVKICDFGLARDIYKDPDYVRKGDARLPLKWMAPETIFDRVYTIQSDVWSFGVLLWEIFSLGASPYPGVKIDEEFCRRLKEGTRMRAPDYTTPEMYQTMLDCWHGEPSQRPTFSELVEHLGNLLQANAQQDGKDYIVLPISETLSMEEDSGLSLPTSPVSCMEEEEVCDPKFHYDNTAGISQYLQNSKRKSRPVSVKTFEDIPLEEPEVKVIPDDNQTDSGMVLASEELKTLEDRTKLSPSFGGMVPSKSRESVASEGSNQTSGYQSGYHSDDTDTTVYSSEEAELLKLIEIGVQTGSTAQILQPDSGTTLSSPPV

various kinases [7] = target: various kinases (Homo sapiens, UniProt O60674, V617F); conditions: JAK2 JH1 JH2 V617F
Chain of various kinases (Homo sapiens, UniProt O60674, V617F) (O60674 whole entry V617F): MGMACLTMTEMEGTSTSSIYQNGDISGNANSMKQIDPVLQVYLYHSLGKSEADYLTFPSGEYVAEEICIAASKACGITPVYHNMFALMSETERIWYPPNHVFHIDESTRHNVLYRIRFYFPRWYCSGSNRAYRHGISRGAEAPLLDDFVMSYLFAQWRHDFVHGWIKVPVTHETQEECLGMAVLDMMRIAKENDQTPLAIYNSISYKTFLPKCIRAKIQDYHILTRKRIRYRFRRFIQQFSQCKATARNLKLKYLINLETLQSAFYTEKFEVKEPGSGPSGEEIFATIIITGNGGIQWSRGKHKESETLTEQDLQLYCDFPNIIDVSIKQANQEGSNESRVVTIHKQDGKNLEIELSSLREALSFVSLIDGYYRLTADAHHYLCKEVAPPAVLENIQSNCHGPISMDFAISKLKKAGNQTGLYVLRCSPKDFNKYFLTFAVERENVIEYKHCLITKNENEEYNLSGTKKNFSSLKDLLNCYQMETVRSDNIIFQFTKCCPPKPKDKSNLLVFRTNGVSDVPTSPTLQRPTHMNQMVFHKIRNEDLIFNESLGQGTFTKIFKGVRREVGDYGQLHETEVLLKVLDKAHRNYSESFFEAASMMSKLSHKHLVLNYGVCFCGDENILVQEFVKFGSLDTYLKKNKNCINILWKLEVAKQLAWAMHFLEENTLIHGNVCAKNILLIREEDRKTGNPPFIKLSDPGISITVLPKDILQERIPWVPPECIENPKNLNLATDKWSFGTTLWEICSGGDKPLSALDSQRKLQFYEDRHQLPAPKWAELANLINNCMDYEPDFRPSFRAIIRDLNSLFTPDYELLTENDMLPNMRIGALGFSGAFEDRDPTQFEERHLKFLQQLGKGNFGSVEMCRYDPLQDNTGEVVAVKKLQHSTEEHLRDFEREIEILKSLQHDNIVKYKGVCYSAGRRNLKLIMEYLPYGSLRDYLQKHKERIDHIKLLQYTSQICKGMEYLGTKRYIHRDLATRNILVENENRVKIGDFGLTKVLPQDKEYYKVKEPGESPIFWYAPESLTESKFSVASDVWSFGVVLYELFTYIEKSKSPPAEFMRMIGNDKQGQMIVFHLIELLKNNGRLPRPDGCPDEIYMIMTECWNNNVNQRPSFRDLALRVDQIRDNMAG

various kinases [8] = target: T2, various kinases (Homo sapiens, UniProt Q13470); conditions: kinase TNK1; ZLYTE
T2 sequence (Q13470 1-666): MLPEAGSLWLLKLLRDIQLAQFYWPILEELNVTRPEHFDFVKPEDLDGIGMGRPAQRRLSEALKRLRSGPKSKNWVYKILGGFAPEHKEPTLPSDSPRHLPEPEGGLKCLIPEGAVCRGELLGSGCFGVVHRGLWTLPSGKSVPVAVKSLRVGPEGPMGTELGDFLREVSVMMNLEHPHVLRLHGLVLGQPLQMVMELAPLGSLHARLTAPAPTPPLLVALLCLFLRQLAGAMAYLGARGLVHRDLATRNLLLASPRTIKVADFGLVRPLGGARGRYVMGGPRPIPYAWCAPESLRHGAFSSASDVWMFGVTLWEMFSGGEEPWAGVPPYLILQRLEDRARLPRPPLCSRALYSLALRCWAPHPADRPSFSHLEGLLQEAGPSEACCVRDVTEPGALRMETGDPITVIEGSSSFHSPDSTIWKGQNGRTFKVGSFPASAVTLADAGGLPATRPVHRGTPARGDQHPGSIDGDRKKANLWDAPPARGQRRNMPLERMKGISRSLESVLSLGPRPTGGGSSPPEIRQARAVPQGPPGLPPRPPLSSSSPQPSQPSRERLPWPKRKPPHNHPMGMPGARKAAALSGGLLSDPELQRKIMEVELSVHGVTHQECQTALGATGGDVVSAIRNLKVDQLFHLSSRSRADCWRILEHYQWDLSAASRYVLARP

various kinases [9] = target: various kinases (Homo sapiens, UniProt Q9UBS0); conditions: kinase RPS6KB2 (p70S6Kb); ZLYTE
Chain of various kinases (Homo sapiens, UniProt Q9UBS0) (Q9UBS0 whole entry): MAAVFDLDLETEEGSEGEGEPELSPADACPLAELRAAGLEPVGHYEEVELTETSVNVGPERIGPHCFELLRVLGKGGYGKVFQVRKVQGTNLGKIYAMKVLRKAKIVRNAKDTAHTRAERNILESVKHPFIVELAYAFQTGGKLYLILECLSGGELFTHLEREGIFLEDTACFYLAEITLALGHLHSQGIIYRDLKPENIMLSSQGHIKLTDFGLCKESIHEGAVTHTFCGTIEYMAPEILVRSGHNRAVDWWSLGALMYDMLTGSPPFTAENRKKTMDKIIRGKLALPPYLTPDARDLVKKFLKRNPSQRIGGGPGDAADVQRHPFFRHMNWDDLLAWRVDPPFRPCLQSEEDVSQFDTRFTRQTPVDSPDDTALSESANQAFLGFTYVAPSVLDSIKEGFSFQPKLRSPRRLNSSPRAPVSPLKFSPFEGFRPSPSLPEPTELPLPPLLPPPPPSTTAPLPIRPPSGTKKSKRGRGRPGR

SMILES: COc1ccc2c(c1)[C@]1(C[C@H]1c1ccc3c(/C=C/c4ccc(CN5C[C@@H](C)O[C@@H](C)C5)cc4)n[nH]c3c1)C(=O)N2 [CFI-400945]
- % Inhibition Average (various kinases [1]): 7%
- % Inhibition Duplicate #1 (various kinases [1]): 6%
- % Inhibition Duplicate #2 (various kinases [1]): 8%
- % Inhibition (various kinases [2]): 14% and 10%
- % Inhibition Average (various kinases [3]): 0%
- % Inhibition Duplicate #1 (various kinases [3]): -1%
- % Inhibition Duplicate #2 (various kinases [3]): 2%
- % Inhibition Average (various kinases [4]): 5%
- % Inhibition Duplicate #1 (various kinases [4]): -1%
- % Inhibition Duplicate #2 (various kinases [4]): 12%
- % Inhibition Average (various kinases [5]): 3%
- % Inhibition Duplicate #1 (various kinases [5]): 3%
- % Inhibition Duplicate #2 (various kinases [5]): 3%
- % Inhibition (various kinases [6]): 16% and 15%
- % Inhibition (various kinases [7]): 8% and 9%
- % Inhibition Average (various kinases [8]): 30%
- % Inhibition Duplicate #1 (various kinases [8]): 26%
- % Inhibition Duplicate #2 (various kinases [8]): 34%
- % Inhibition Average (various kinases [9]): 5%
- % Inhibition Duplicate #1 (various kinases [9]): 5%
- % Inhibition Duplicate #2 (various kinases [9]): 4%
